The values below come from article PMC8550792, “Evolution of kinase polypharmacology across HSP90 drug discovery” (Cell Chemical Biology, 2021).

Holding throughout (experiment): biochemical
What all share (format): biochemical

For assay [1], the target named is T1, 382 unique human kinases (Homo sapiens, UniProt P10721, D816I).
T1 construct: purchased Reaction Biology (HotSpot contract assay)
The note with it: c-Kit (D816I), 10 uM.

Assay [2] concerns the target T2, 382 unique human kinases (Homo sapiens, UniProt P07947, T348I).
T2 construct: purchased Reaction Biology (HotSpot contract assay)
The note with it: YES1 (T348I), compound at 10 uM, duplicate values.

In assay [3] the target is T3, 382 unique human kinases (Homo sapiens, UniProt P00533, C797S/L858R/T790M).
T3 construct: purchased Reaction Biology (HotSpot contract assay)
The note with it: EGFR (T790M/C797S/L858R), compound at 10 uM, duplicate values.

In assay [4] the target is T4, 382 unique human kinases (Homo sapiens, UniProt P08069).
T4 construct: purchased Reaction Biology (HotSpot contract assay)
T4 sequence (P08069 31-1367): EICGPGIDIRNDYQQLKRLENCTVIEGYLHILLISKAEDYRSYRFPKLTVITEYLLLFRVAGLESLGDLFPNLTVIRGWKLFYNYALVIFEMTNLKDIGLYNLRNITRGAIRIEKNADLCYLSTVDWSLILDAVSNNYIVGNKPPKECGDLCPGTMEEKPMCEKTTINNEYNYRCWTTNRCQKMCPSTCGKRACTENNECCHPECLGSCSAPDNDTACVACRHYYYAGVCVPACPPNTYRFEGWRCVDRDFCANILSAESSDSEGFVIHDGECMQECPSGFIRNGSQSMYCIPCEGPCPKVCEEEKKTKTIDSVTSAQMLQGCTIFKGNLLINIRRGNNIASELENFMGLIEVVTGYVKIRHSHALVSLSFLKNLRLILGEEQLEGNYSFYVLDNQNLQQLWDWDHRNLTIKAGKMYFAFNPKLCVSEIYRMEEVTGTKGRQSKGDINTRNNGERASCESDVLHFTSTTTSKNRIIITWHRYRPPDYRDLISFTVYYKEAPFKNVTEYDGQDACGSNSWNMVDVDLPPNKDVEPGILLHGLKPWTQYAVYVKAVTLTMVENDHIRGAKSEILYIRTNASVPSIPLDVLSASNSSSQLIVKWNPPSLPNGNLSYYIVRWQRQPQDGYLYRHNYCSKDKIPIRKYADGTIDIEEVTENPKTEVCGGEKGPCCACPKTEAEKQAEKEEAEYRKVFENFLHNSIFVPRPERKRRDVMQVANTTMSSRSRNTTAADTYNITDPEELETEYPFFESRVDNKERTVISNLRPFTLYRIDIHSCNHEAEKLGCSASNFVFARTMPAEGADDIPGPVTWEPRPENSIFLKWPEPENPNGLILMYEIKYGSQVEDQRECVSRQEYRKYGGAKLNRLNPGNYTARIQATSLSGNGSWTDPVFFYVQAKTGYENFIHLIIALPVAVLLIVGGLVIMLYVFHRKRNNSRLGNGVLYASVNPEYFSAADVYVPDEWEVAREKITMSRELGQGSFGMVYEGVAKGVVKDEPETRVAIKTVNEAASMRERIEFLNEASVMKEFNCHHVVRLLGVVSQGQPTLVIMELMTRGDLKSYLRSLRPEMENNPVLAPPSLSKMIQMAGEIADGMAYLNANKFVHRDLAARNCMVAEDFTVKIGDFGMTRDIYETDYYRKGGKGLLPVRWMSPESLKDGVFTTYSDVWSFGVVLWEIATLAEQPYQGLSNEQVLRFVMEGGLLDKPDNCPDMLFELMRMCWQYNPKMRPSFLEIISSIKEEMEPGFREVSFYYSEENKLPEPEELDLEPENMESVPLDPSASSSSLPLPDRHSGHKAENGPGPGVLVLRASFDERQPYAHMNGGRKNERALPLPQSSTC
The note with it: IGF1R, compound at 10 uM, duplicate values.

The target of assay [5] is T5, 382 unique human kinases (Homo sapiens, UniProt Q96S53).
T5 construct: purchased Reaction Biology (HotSpot contract assay)
The conditions noted are these: TESK2, 10 uM.

For assay [6], the target named is T6, 382 unique human kinases (Homo sapiens, UniProt P15056, V600K).
T6 construct: purchased Reaction Biology (HotSpot contract assay)
T6 sequence (P15056 whole entry V600K): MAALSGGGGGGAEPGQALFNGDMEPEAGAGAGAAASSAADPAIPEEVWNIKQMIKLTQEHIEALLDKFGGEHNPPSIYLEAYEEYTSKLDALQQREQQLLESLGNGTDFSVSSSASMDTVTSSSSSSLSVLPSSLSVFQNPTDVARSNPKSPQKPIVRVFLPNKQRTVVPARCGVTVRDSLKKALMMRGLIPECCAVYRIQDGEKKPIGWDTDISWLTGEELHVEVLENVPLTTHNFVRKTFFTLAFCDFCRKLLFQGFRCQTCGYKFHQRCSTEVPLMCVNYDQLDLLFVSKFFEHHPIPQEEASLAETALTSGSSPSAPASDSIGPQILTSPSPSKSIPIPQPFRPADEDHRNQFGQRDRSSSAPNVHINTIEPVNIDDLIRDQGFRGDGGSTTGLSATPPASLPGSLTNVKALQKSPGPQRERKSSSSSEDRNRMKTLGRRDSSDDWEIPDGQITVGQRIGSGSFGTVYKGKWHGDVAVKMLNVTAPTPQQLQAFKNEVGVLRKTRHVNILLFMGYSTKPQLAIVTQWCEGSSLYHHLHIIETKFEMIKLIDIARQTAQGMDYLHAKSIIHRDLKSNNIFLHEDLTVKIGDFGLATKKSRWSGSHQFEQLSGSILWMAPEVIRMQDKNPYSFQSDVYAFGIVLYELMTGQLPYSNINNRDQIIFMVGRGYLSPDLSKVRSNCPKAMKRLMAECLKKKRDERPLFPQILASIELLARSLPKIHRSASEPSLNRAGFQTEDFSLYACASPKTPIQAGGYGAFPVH
The conditions noted are these: BRAF (V600K), 10 uM.

Assay [7] addresses T7, 382 unique human kinases (Homo sapiens, UniProt P00519, F317L).
T7 construct: purchased Reaction Biology (HotSpot contract assay)
The conditions noted are these: ABL1 (F317L), [ATP] 5 µM, compound 10 uM.

Assay [8] has as its target T8, 382 unique human kinases (Homo sapiens, UniProt P15056, G469A).
T8 construct: purchased Reaction Biology (HotSpot contract assay)
The conditions noted are these: BRAF (G469A), 10 uM.

Assay [9] addresses T9, 382 unique human kinases (Homo sapiens, UniProt P00533, C797A).
T9 construct: purchased Reaction Biology (HotSpot contract assay)
The conditions noted are these: EGFR (C797A), 10 uM.

In assay [10] the target is T10, 382 unique human kinases (Homo sapiens, UniProt P15056, G464V).
T10 construct: purchased Reaction Biology (HotSpot contract assay)
T10 sequence (P15056 whole entry G464V): as the sequence (P15056 whole entry V600K) above, with G464V, K600V counted along it
The note with it: BRAF (G464V), 10 uM.

Assay [11] concerns the target T11, 382 unique human kinases (Homo sapiens, UniProt P19784).
T11 construct: purchased Reaction Biology (HotSpot contract assay)
The conditions noted are these: CK2a2, 10 uM.

Where [12] appears, read: read-out: % Enzyme Activity (relative to DMSO controls).

T7 sequence (P00519 whole entry F317L): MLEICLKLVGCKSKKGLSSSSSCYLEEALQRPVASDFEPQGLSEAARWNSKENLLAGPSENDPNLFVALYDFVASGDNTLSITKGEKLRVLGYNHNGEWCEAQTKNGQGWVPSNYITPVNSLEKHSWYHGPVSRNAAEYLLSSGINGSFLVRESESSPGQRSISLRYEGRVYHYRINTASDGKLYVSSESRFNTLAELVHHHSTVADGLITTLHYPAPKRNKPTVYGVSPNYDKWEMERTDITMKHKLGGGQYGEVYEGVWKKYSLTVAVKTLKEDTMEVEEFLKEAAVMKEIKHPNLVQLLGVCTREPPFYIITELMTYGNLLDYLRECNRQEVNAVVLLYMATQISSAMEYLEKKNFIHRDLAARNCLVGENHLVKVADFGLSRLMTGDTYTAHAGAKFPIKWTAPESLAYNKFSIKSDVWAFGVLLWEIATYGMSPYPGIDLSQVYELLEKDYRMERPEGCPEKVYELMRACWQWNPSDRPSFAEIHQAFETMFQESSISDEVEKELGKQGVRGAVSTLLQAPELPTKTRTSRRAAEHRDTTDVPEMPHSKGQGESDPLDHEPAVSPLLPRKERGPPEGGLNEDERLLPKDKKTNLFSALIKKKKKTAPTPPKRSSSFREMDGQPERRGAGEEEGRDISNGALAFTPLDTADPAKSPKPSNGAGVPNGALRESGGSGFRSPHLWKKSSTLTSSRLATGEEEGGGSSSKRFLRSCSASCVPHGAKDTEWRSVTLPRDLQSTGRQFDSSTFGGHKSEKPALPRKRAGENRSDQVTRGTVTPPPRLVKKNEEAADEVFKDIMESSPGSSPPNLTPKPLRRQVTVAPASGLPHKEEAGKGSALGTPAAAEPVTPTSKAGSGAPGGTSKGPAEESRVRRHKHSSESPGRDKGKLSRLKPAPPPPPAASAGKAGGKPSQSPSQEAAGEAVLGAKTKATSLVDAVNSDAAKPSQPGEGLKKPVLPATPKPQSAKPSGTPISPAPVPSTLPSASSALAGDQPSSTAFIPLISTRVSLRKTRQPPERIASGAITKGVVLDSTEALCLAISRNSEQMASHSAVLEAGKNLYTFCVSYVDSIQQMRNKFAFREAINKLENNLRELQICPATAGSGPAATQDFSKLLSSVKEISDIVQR
T1 sequence (P10721 26-976 D816I): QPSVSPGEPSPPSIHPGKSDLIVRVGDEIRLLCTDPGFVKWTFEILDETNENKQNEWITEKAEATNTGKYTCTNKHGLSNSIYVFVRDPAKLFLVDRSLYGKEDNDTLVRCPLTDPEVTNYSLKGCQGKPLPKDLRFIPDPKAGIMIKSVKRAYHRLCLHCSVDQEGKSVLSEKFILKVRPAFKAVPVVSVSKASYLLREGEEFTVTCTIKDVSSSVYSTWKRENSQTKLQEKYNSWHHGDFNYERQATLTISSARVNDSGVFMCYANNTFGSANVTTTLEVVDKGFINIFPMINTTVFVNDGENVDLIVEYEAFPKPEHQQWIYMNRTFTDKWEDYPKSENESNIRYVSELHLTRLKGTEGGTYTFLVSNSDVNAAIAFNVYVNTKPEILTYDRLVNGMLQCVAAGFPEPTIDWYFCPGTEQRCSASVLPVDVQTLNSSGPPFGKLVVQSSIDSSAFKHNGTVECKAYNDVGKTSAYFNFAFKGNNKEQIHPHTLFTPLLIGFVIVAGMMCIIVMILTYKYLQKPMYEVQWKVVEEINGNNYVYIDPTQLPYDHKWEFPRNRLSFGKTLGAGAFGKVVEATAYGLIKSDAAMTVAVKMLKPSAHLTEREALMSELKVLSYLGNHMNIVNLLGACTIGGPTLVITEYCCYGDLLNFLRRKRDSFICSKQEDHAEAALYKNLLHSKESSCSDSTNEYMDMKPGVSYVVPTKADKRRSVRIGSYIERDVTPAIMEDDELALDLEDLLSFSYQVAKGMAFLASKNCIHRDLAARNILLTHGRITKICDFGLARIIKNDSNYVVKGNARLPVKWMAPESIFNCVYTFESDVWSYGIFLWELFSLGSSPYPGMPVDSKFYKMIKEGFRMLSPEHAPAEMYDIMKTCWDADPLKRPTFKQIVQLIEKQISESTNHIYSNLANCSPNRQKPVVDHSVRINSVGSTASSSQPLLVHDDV
T11 sequence (P19784 whole entry): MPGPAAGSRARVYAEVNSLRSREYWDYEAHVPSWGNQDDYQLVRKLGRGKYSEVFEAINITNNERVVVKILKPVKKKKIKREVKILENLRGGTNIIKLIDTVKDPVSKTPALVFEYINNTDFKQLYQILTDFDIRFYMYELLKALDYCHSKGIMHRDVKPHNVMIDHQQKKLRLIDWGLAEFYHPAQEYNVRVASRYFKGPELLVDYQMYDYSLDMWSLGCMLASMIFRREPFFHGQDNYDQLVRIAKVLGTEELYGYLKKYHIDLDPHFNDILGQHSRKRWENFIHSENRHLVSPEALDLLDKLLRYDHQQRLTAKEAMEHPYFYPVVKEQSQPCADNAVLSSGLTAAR
T8 sequence (P15056 whole entry G469A): as the sequence (P15056 whole entry V600K) above, with G469A, K600V counted along it

As to `CCNC(=O)c1noc(-c2cc(C(C)C)c(O)cc2O)c1-c1ccc(CN2CCOCC2)cc1` [Luminespib (AUY-922)], the “% Enzyme Activity (relative to DMSO controls)” value came to 72.16% on 382 unique human kinases [1], 101.23% on 382 unique human kinases [2], 100.18% on 382 unique human kinases [3] and 104.49% at 382 unique human kinases [4]. Moreover, the remaining activity at 10 µM at 382 unique human kinases [1] (setting [12]) turned out to be 73.3%; at 382 unique human kinases [2] (setting [12]), 103%; on 382 unique human kinases [3] (setting [12]), 100%; at 382 unique human kinases [4] (setting [12]), 106%.
Turning to `CCNC(=O)c1noc(-c2cc(C(C)C)c(O)cc2O)c1-c1ccc(CN2CCOCC2)cc1` [Luminespib], the “% Enzyme Activity (relative to DMSO controls)” value on 382 unique human kinases [5] is 98.62%; at 382 unique human kinases [6] it was 98.47%; on 382 unique human kinases [7] it was 5.92%; at 382 unique human kinases [8] it was 98.83%; on 382 unique human kinases [9], 99.37%; on 382 unique human kinases [10], 97.60%. Further, the “% Enzyme Activity (relative to DMSO controls)” value on 382 unique human kinases [11] was 108.66%. The remaining activity at 10 µM at 382 unique human kinases [5] (setting [12]) worked out at 100%; at 382 unique human kinases [6] (setting [12]) it was 99.2%; at 382 unique human kinases [7] (setting [12]), 6.23%; at 382 unique human kinases [8] (setting [12]), 99.7%; at 382 unique human kinases [9] (setting [12]), 102%; at 382 unique human kinases [10] (setting [12]), 97.9%. Also, at 382 unique human kinases [11] (setting [12]), the remaining activity at 10 µM was determined as 111%.
